Assay results taken from publication PMC9775191, “A Subset Screen of the Compounds Australia Scaffold Library Identifies 7-Acylaminodibenzoxazepinones as Potent and Selective Hits for Anti-Giardia Drug Discovery” (Biomedicines, 2022).
Read-outs that look alike come from different tables or passages of the source.

Columns and labels:
[1] = test system: G. duodenalis BRIS/91/HEPU/1279; experiment: Giardia dose response assay, assemblage B; format: cell-based, Giardia duodenalis; conditions: 48 h, BRIS/91/HEPU/1279, 48 h, mean ± SD, read-out: IC50 Giardia (48 h)
Method: In these assays, compounds were serially diluted (8–12-point doubling dilutions in technical duplicate) in DMSO control media, with all test wells inoculated with parasites (1.5 × 10^4 parasites for BRIS/91/HEPU/1279 and BRIS/91/HEPU/1279m1, or 3 × 10^3 parasites for BRIS/87/HEPU/713). […] All plates were sealed in culture chambers and gassed with 3% O2, 5% CO2 in N2 and incubated at 37 °C for 48 h, with parasites imaged and enumerated at 24 and 48 h. Growth inhibition was calculated as a percentage relative to vehicle controls minus any background as described above and IC50 values were determined using log-linear interpolation as previously described. […] Statistical comparison of IC50 values when required were performed using Student’s t-test.

[2] = test system: G. duodenalis BRIS/91/HEPU/1279; experiment: Primary Giardia screen at 10 µM (live-cell imaging, automated counting); format: cell-based, Giardia duodenalis; conditions: for inhibition at 10 µM: Giardia duodenalis, read-out: % Inhibition n=1 48h; for inhibition at 10 µM / % Inhibition n=1 48h / Average % Inhibition 48h / % Inhibition n=2 48h: 48 h; for inhibition at 10 µM / % Inhibition n=1 48h / % Inhibition n=1 24h: first singlicate assay; for % Inhibition n=2 24h / % Inhibition n=2 48h: re-assessment
Procedure, shortened: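 Percent growth versus 0.2% DMSO vehicle, background-corrected with media-only wells, is reported at 24 and 48 h from automated live-cell counts. Testing used 10 μM final in a 3% O2 atmosphere, with plate quality checked by Z' factor.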

[3] = test system: Neonatal foreskin fibroblast (NFF) cells; experiment: Mammalian cell cytotoxicity assay (sulforhodamine B); format: cell-based, human; conditions: for IC50: Homo sapiens, NFF, mean ± SD, read-out: IC50 NFF; for Selectivity: NFF IC50 divided by G. duodenalis BRIS/91/HEPU/1279 IC50
Method: The selectivity of compounds of interest was assessed against NFF cells. Assays were performed using sulforhodamine B and included media only, negative (no compound, no DMSO), and vehicle (DMSO) controls as previously described. A chloroquine control plate was included in each assay. […] Repurchased SN00797640 was tested in dose–response from 100 µM against NFF. Selectivity indices (SI) were calculated by dividing mammalian cell IC50 values by G. duodenalis BRIS/91/HEPU/1279 IC50 values.

Row | Compound | IC50 ([1]; Giardia duodenalis) | % Inhibition n=1 48h [2] | other results
1 | Cc1cc(-c2cc(C(=O)Nc3c(C)n(C)n(-c4ccccc4)c3=O)c3cnn(C(C)C)c3n2)c(C)o1 [SN00776477] | > 10 µM | – | inhibition at 10 µM [2]: 0%
2 | COc1ccc(C(=O)Nc2ccc3c(c2)Oc2ccccc2C(=O)N3C)cc1OC [SN00797646] | 8.6 µM | – | IC50 [1]: > 8.6 µM
3 | Cc1ccc(NC(=O)c2oc3ccccc3c2NC(=O)c2ccccc2)cc1 [SN00785329] | > 10 µM | – | –
4 | COc1cc(OC)cc(C(=O)Nc2ccc3c(c2)Oc2ccccc2C(=O)N3C)c1 [SN00797637] | 5 µM | – | –
5 | CN1C(=O)c2ccccc2Oc2cc(NC(=O)c3cc4ccccc4[nH]3)ccc21 [SN00797648] | 1.4 µM | – | IC50 [1]: 1.7 µM; IC50 [3]: > 20 µM; Selectivity [3]: >11
6 | CN1C(=O)c2ccccc2Oc2cc(NC(=O)COc3ccc(Cl)cc3)ccc21 [SN00797641] | > 10 µM | – | –
7 | CN1C(=O)c2ccccc2Oc2cc(NC(=O)C3(c4ccccc4)CC3)ccc21 [SN00797642] | > 10 µM | – | –
8 | CC(C)N1C(=O)c2ccccc2Oc2cc(NC(=O)C3CCCCC3)ccc21 [SN00797659] | > 10 µM | – | –
9 | CN1C(=O)c2ccccc2Oc2cc(NC(=O)c3ccoc3)ccc21 [SN00797644] | > 10 µM | – | –
10 | Cc1ccc(N2CC(C(=O)Nc3ccc4c(c3)Oc3ccccc3C(=O)N4C)CC2=O)cc1C (stereo not shown) [SN00797636] | > 10 µM | – | –
11 | CN1C(=O)c2ccccc2Oc2cc(NC(=O)c3cc4cc(Cl)ccc4[nH]3)ccc21 [SN00797649] | > 10 µM | – | –
12 | CCN1CCN(CCCNC(=O)c2cc3occc3c(Nc3ccc(OC)cc3)n2)CC1 [SN00790822] | – | 14.5% | –
13 | COc1ccc(OC)c(NC(=O)C2CC(=O)N(c3cccc(NC(C)=O)c3)C2)c1 (stereo not shown) [SN00797576] | – | 0.0% | –
14 | O=C(NCc1ccccc1)c1ccc(-c2cc(N3CCOCC3)ncn2)cc1 [SN00794761] | – | 12.2% | –
15 | Cc1ccccc1NC(=O)c1ccc2c(c1)CCN2S(C)(=O)=O [SN00785973] | – | 31.2% | –
16 | CCCc1cc(N2CCOCC2)n2nc(C)c(-c3ccccc3)c2n1 [SN00780810] | – | 20.2% | –
17 | Cc1ccc(C)c(OC2CCN(c3ncnc4nc[nH]c34)CC2)c1 [SN00780571] | – | 12.5% | –
18 | Cn1cc2c(n1)c(=O)n(Cc1ccccc1)c(=O)n2CC(=O)Nc1cccc(F)c1 [SN00796169] | – | 46.9% | Average % Inhibition 24h [2]: 30.6%; % Inhibition n=1 24h [2]: 37.8%; % Inhibition n=2 24h [2]: 23.4%; Average % Inhibition 48h [2]: 62.8%; % Inhibition n=2 48h [2]: 78.6%
19 | O=C(COc1ccccc1)N1CCCN(c2cccnn2)CC1 [SN00772032] | – | 1.9% | –
20 | Cc1cccc(-n2c(CN3CCN(C(=O)NCC4CCCO4)CC3)nc3cccnc32)c1 (stereo not shown) [SN00796109] | – | 0.7% | –

Row | Compound | IC50 ([1]; Giardia duodenalis) | % Inhibition n=1 48h [2] | other results
21 | Cc1ccc(-c2nnc(-c3cccnc3N3CCCC3)o2)cc1 [SN00797693] | – | 0.0% | –
22 | CCC(=O)Nc1cccc(-c2noc(C3CCCN(C(=O)c4ccc(C)c(F)c4)C3)n2)c1 (stereo not shown) [SN00797220] | – | 14.6% | –
23 | CCc1noc(C2(NC(=O)c3cc(-c4ccccc4)n[nH]3)CCCCC2)n1 [SN00800487] | – | 0.0% | –
24 | O=C(c1cc(C2CC2)nc2ccccc12)N1CC2CCC1C2 (stereo not shown) [SN00777604] | – | 18.4% | –
25 | COc1ccc(-c2nnc(-c3cccnc3N3CCN(C(=O)c4cccc(OC)c4)CC3)o2)cc1 [SN00797707] | – | 2.3% | –
26 | Cc1c(C(=O)Nc2cc(-c3ccncc3)n[nH]2)cccc1[N+](=O)[O-] [SN00776775] | – | 37.2% | Average % Inhibition 24h [2]: 6.4%; % Inhibition n=1 24h [2]: 12.8%; % Inhibition n=2 24h [2]: 0.0%; Average % Inhibition 48h [2]: 21.4%; % Inhibition n=2 48h [2]: 5.6%
27 | CCC(=O)N1N=C2C3CCN(CC3)[C@@H]2[C@@H]1c1cccc(OC)c1OC [SN00785687] | – | 13.8% | –
28 | O=C1CC(C(=O)N2CCN(c3ccccc3)CC2)CN1CCc1ccccc1 (stereo not shown) [SN00800474] | – | 6.2% | –
29 | N/C(=N/OCc1ncc(-c2cccs2)o1)c1ccc(Oc2ccc(F)cc2)nc1 [SN00781212] | – | 41.6% | –
30 | O=C(C1CCCN(S(=O)(=O)c2ccccc2)C1)N1CCCC(C(F)(F)F)C1 (stereo not shown) [SN00774985] | – | 7.6% | –
31 | OC(CN1CCCN(C2CC2)CC1)c1ccccc1C(F)(F)F (stereo not shown) [SN00782563] | – | 5.9% | –
32 | O=C(c1cc(-c2cccnc2)[nH]n1)N1CCCC1 [SN00799309] | – | 13.7% | –
33 | COc1ccc2oc(-c3noc(C(=O)NCCN4CCCCCC4)n3)c(C)c2c1 [SN00795214] | – | 52.1% | Average % Inhibition 24h [2]: 11.6%; % Inhibition n=1 24h [2]: 16.8%; % Inhibition n=2 24h [2]: 6.3%; Average % Inhibition 48h [2]: 56.6%; % Inhibition n=2 48h [2]: 61.1%
34 | CCCc1nnc(C(=O)Nc2cccc(C(=O)NCc3c[nH]nc3C)c2)s1 [SN00790723] | – | 0.0% | –
35 | Cc1nc(N(C)C)cc(N2CCN(C(=O)Nc3cccc(C(F)(F)F)c3)CC2)n1 [SN00786482] | – | 55.4% | Average % Inhibition 24h [2]: 10.6%; % Inhibition n=1 24h [2]: 15.1%; % Inhibition n=2 24h [2]: 6.1%; Average % Inhibition 48h [2]: 29.2%; % Inhibition n=2 48h [2]: 2.9%
36 | O=C(c1c[nH]nc1-c1ccc(Cl)cc1)N1CCN(c2ccccc2)CC1 [SN00791700] | – | 26.6% | –
37 | Cc1nc(-c2ccccn2)cc2nn(CC(=O)N3CCC(Cc4ccccc4)CC3)c(=O)n12 [SN00799441] | – | 4.9% | –
38 | Cc1ncc(C(=O)NC2C3CCCOC3C2(C)C)s1 (stereo not shown) [SN00782098] | – | 9.0% | –
39 | Cc1ccc(C2=CC(c3ccccc3)n3nnnc3N2CC(=O)N2CCN(c3ccccc3)CC2)cc1 (stereo not shown) [SN00786799] | – | 34.8% | –
40 | O=C(c1cc(CN2CCCC2)on1)N1CCN(C(=O)c2ccco2)CC1 [SN00791727] | – | 0.0% | –

Now from value to compound, other results behind:

Row | IC50 ([1]; Giardia duodenalis) | Compound | % Inhibition n=1 48h [2] | other results
41 | > 10 µM | CN1C(=O)c2ccccc2Oc2cc(NC(=O)c3cccc(Br)c3)ccc21 [SN00797645] | – | –
42 | > 10 µM | CC(C)N1C(=O)c2ccccc2Oc2cc(NC(=O)C3CC(=O)N(c4ccccc4)C3)ccc21 (stereo not shown) [SN00797655] | – | –
43 | > 10 µM | COc1ccc(C(=O)Nc2ccc3c(c2)Oc2ccccc2C(=O)N3C(C)C)c(OC)c1 [SN00797650] | – | –
44 | > 10 µM | Cc1ccc(N2CC(C(=O)Nc3ccc4c(c3)Oc3ccccc3C(=O)N4C(C)C)CC2=O)cc1 (stereo not shown) [SN00797654] | – | –
45 | > 10 µM | CN1C(=O)c2ccccc2Oc2cc(NC(=O)c3ccccc3)ccc21 [SN00797647] | – | –
46 | > 10 µM | CCn1ccc(C(=O)Nc2ccc3c(c2)Oc2ccccc2C(=O)N3C(C)C)n1 [SN00797664] | – | –
47 | > 10 µM | CCOc1ccc(C(=O)Nc2ccc3c(c2)N(C(C)C)C(=O)c2ccccc2O3)cc1 [SN00797660] | – | inhibition at 10 µM [2]: 33.8%
48 | > 10 µM | COc1ccc(C(=O)Nc2ccc3c(c2)Oc2ccccc2C(=O)N3C)c(OC)c1 [SN00797635] | – | –
49 | 0.47 µM | CCc1ccc(C(=O)Nc2ccc3c(c2)Oc2ccccc2C(=O)N3C)cc1 [SN00797643] | – | IC50 [3]: > 10 µM; Selectivity [3]: >20
50 | > 10 µM | CN1C(=O)c2ccccc2Oc2cc(NC(=O)CNC(=O)c3ccco3)ccc21 [SN00797638] | – | –
51 | > 10 µM | CC(C)N1C(=O)c2ccccc2Oc2cc(NC(=O)c3cccs3)ccc21 [SN00797657] | – | –
52 | > 10 µM | Cc1cccc(C(=O)Nc2ccc3c(c2)Oc2ccccc2C(=O)N3C)c1 [SN00797639] | – | –
53 | > 10 µM | Cc1ccc(C(=O)NCC(=O)Nc2ccc3c(c2)Oc2ccccc2C(=O)N3C(C)C)cc1 [SN00797656] | – | –
54 | > 10 µM | CC(C)N1C(=O)c2ccccc2Oc2cc(NC(=O)CNC(=O)c3ccco3)ccc21 [SN00797652] | – | –
55 | > 10 µM | CC(=O)Nc1cccc(C(=O)Nc2ccc3c(c2)Oc2ccccc2C(=O)N3C(C)C)c1C [SN00797651] | – | –
56 | > 10 µM | CC(C)N1C(=O)c2ccccc2Oc2cc(NC(=O)c3ccccc3)ccc21 [SN00797661] | – | –
57 | > 10 µM | Cc1ccc(C(=O)Nc2ccc3c(c2)Oc2ccccc2C(=O)N3C(C)C)cc1F [SN00797663] | – | –
58 | > 10 µM | COc1ccc(OCC(=O)Nc2ccc3c(c2)Oc2ccccc2C(=O)N3C(C)C)cc1 [SN00797662] | – | –
59 | > 10 µM | Cc1ccc(C(=O)Nc2ccc3c(c2)Oc2ccccc2C(=O)N3C(C)C)cc1 [SN00797658] | – | –
60 | > 10 µM | Cc1ccc(N2CC(C(=O)Nc3ccc4c(c3)Oc3ccccc3C(=O)N4C(C)C)CC2=O)cc1C (stereo not shown) [SN00797653] | – | –
